Literature values as cited in US20190380987A1, “COMPOSITION AND METHOD FOR TREATING MUCOLYTIC AND INFLAMMATORY AIRWAY CONDITIONS” (priority 2018, published 2019).

Key:
CF patients = details: 2700 mg of oral NAC per day in divided doses of 900 mg, controls declined

solubility in alcohol (alcohol): soluble
solubility in chloroform (chloroform): practically insoluble
solubility in ether (ether): practically insoluble
solubility in water (water): soluble
SMILES: CC(=O)N[C@@H](CS)C(=O)O [N-acetylcysteine]
lung function decline (CF patients): did not experience lung function decline
